inhibition, relative solubility and IC50 data for 18 compounds are collected here from the COVID Moonshot data (paper PMC11187573), “Identification of SARS-CoV-2 Mpro inhibitors through deep reinforcement learning for de novo drug design and computational chemistry approaches” (RSC Medicinal Chemistry, 2024).

Data set [1] concerns the target SARS-CoV-2 Main Protease (SARS-CoV-2) (UniProt P0DTD1).
The target is the same in data set [2]. The source holds these as a separate data set.
Description: Briefly, compounds were seeded into assay-ready plates (Greiner 384PP, cat# 781280) using an ECHO 650T dispenser and DMSO was back-filled for a uniform concentration in assay plates (DMSO concentration < 1%, final volume = 500 nL.). […] After a quick centrifugation step (1000 rpm, 15 s) the plate is incubated for 15 min at room temperature. […] After centrifugation (1000 rpm, 14 s) the reaction is incubated for 10 min (11-mer) or 5 min (37-mer) at room temperature before quenching with 10 % formic acid. The reactions are analysed with MS using RapidFire (RF) 365 high-throughput sampling robot (Agilent) connected to an iFunnel Agilent 6550 accurate mass quadrupole time-of-flight (Q-TOF) mass spectrometer using electrospray. […] Dose response curves uses an 11-point range of 100--0.0017 µM inhibitor concentrations. RapidFire integrator software (Agilent) was used to extract the charged states from the total ion chromatogram data followed by peak integration. For the 11-mer peptide the m/z (+1) charge states of both the substrate (1191.67 Da) and cleaved N-terminal product TSAVLQ (617.34 Da) were used and the 37-mer peptide the m/z (+2) charge states of the substrate (3960.94 Da) and m/z (+1) of the cleaved C-terminal product [sequence] (1125.57 Da). Percentage conversion (product peak integral / (product peak integral + substrate peak integral))*100) and percentage inhibitions were calculated and normalised against DMSO control with deduction of any background signal in Microsoft Excel. IC50s were calculated using Levenberg–Marquardt algorithm used to fit a restrained Hill equation to the dose-response data with both GraphPad PRISM and CDD.

Compound `O=C(Nc1ccccc1Cl)c1cc(Cl)ccc1O` displayed a relative solubility at 20 uM of 0.91 and a relative solubility at 100 uM of 0.7. Further, the inhibition (as a rule, the change of the read-out against control, counted positive when it falls) in data set [1] (20.0 µM) turned out to be 5.47%. In data set [1] (50.0 µM), the inhibition stood at 5.58%. The inhibition in data set [2] (20.0 µM) stood at 7.14%.

As for `O=C(CNc1c(-c2ccccc2)nc2ccccn12)N/N=C/c1cccc2ccccc12`, the relative solubility at 20 uM worked out at 0.5 and the relative solubility at 100 uM was 0.5. Further, in data set [1] (20.0 µM), the inhibition was 13.8%. Moreover, in data set [1] (50.0 µM), the inhibition was 17.8%. Also, in data set [2] (50.0 µM), the inhibition was determined as 7.53%.

`O=C(Cc1cccnc1)Nc1cc(Cl)ccc1O` gave a relative solubility at 20 uM of 1.01 and a relative solubility at 100 uM of 0.98. Also, the inhibition in data set [1] (20.0 µM) is -1.54%. The inhibition in data set [1] (50.0 µM) was determined as 23.3%. In addition, the inhibition in data set [2] (50.0 µM) is 6.62%.

Regarding `O=C(CCn1ccnn1)NC(CN1CCOCC1)c1ccccc1` (centres undefined), the relative solubility at 20 uM was found to be 1 and the relative solubility at 100 uM is 1. Further, the inhibition in data set [1] (20.0 µM) amounted to 2.31%. For the same compound, in data set [1] (50.0 µM), the inhibition stood at 5.19%. The inhibition in data set [2] (20.0 µM) was found to be 0%. For the same compound, the inhibition in data set [2] (50.0 µM) is 0%.

`COc1ccnc(NC(=O)Cc2ccc3ccccc3c2)c1` displayed a relative solubility at 20 uM of 0.95 and a relative solubility at 100 uM of 0.91. In addition, the inhibition in data set [1] (20.0 µM) is 3.47%. Moreover, the inhibition in data set [1] (50.0 µM) was found to be 6.09%. Besides, the inhibition in data set [2] (20.0 µM) was determined as 0%. Moreover, the inhibition in data set [2] (50.0 µM) is 17.1%.

Compound `O=C(O)[C@@H](Cc1nc(=O)cc[nH]1)NCc1ccc(Cl)s1` (stereo in doubt) gave a relative solubility at 20 uM of 1.01 and a relative solubility at 100 uM of 1. Besides, the inhibition in data set [1] (20.0 µM) came out at 6.7%. Also, in data set [1] (50.0 µM), the inhibition is 4.85%. Also, in data set [2] (50.0 µM), the inhibition was determined as 2.07%.

In turn, `COc1ccccc1OCCNC(=O)c1cc(=O)[nH]c2ccccc12` showed a relative solubility at 20 uM of 0.99 and a relative solubility at 100 uM of 0.96. In addition, the 50% inhibitory concentration (IC50) (commonly the concentration that gives 50% inhibition) in data set [1] worked out at 7.23 µM. Also, the inhibition in data set [1] (20.0 µM) worked out at 83.7%. Further, the inhibition in data set [1] (50.0 µM) worked out at 92.7%. In addition, the IC50 in data set [2] stood at 3.46 µM. Besides, the inhibition in data set [2] (20.0 µM) is 70.1%. The inhibition in data set [2] (50.0 µM) worked out at 83.8%.

`O=C(Nc1cccnc1)c1cccc(Cl)c1` yielded a relative solubility at 20 uM of 1 and a relative solubility at 100 uM of 0.92. The inhibition in data set [1] (20.0 µM) was found to be 5.47%. Besides, in data set [1] (50.0 µM), the inhibition came out at 6.67%. In addition, in data set [2] (20.0 µM), the inhibition turned out to be 0%.

As to `O=C(CCl)N1CCN(S(=O)(=O)c2cccc(F)c2)CC1`, the relative solubility at 20 uM was 1 and the relative solubility at 100 uM was determined as 1. Moreover, the IC50 in data set [1] worked out at 4.55 µM. The inhibition in data set [1] (20.0 µM) turned out to be 97.3%. Also, in data set [1] (50.0 µM), the inhibition was found to be 104%. In addition, the IC50 in data set [2] was 2.02 µM. Moreover, the inhibition in data set [2] (20.0 µM) is 96.6%. In addition, in data set [2] (50.0 µM), the inhibition is 96.8%.

Take `Cc1ccncc1NC(=O)Cc1cccc(OC(F)(F)F)c1`: the relative solubility at 20 uM turned out to be 0.98 and the relative solubility at 100 uM was 0.98. Besides, the inhibition in data set [1] (20.0 µM) is -3.16%. In addition, the inhibition in data set [1] (50.0 µM) is -22.5%. Also, the inhibition in data set [2] (50.0 µM) stood at 12.6%.

Take `Cc1cc(C)c(C)c(S(=O)(=O)N2CCN(C(=O)c3cc(=O)[nH]c4ccccc34)CC2)c1C`: the relative solubility at 20 uM is 0.75 and the relative solubility at 100 uM amounted to 0.65. Also, the inhibition in data set [1] (20.0 µM) was found to be 84.4%. In addition, in data set [1] (50.0 µM), the inhibition turned out to be 92.9%. The same compound gave an IC50 in data set [2] of 3.75 µM. Further, the inhibition in data set [2] (20.0 µM) amounted to 81.7%. Further, the inhibition in data set [2] (50.0 µM) came out at 88.1%.

Consider `O=C(CCl)NC(CO)c1cccc(Cl)c1` (centres undefined), for which the relative solubility at 20 uM worked out at 1 and the relative solubility at 100 uM was found to be 0.99. Moreover, the inhibition in data set [1] (50.0 µM) turned out to be 51.6%. Moreover, the inhibition in data set [2] (20.0 µM) was 16%. For the same compound, the inhibition in data set [2] (50.0 µM) worked out at 45.3%.

`Cc1ccncc1NC(=O)CC(O)C1CC1` (centres undefined) gave a relative solubility at 20 uM of 1 and a relative solubility at 100 uM of 1.01. Moreover, in data set [1] (20.0 µM), the inhibition is -48%. The inhibition in data set [1] (50.0 µM) was 1.39%. In addition, the inhibition in data set [2] (50.0 µM) was found to be 2.72%.

With `CCCNC(=O)C(C)NC(=O)N(C)Cc1csc(C)n1` (centres undefined), the relative solubility at 20 uM turned out to be 1 and the relative solubility at 100 uM stood at 1. Further, in data set [1] (20.0 µM), the inhibition is 0.814%. The inhibition in data set [1] (50.0 µM) is -2.74%. The inhibition in data set [2] (20.0 µM) turned out to be 0%.

As for `O=C1CC(c2cccc(NC(=O)Cc3cncnc3)c2)CN1` (centres undefined), the relative solubility at 20 uM worked out at 1 and the relative solubility at 100 uM is 1. The inhibition in data set [1] (20.0 µM) is 3.83%. The inhibition in data set [1] (50.0 µM) was determined as 10.8%. Also, in data set [2] (50.0 µM), the inhibition stood at 0%.

Take `O=C(CCl)N1CCN(Cc2cccc(Cl)c2)CC1`: the relative solubility at 20 uM was determined as 1 and the relative solubility at 100 uM amounted to 1. The compound further showed an IC50 in data set [1] of 2.54 µM. Further, in data set [1] (50.0 µM), the inhibition was found to be 108%. In addition, the IC50 in data set [2] worked out at 0.545 µM. Also, the inhibition in data set [2] (20.0 µM) stood at 99.8%. In data set [2] (50.0 µM), the inhibition is 100%.

Take `Cc1ccccc1CN1CCN(C(=O)C(F)C(C)C)CC1` (centres undefined): the relative solubility at 20 uM was found to be 1 and the relative solubility at 100 uM came out at 1. In addition, the inhibition in data set [1] (20.0 µM) amounted to 2.74%. Further, in data set [1] (50.0 µM), the inhibition was 6.7%. The inhibition in data set [2] (20.0 µM) stood at 0%. For the same compound, the inhibition in data set [2] (50.0 µM) was determined as 10.3%.

Take `O=C(NCc1ccns1)Nc1cccc(CN2CCCC2=O)c1`: the relative solubility at 20 uM turned out to be 1 and the relative solubility at 100 uM came to 0.97. The inhibition in data set [1] (20.0 µM) is -0.28%. The inhibition in data set [1] (50.0 µM) is -2.05%. In addition, the inhibition in data set [2] (20.0 µM) amounted to 0%. In data set [2] (50.0 µM), the inhibition was determined as 0%.
